Laboratory results published in a compilation of properties of binary mixtures (doi:10.1016/j.molliq.2014.08.031).

Experiment: xn = mol fraction of the nth substance listed
Settings: 101 kPa

CCCC[n+]1ccn(C)c1.CS(=O)(=O)[O-] + O
Settings	electrical conductivity [S/m]	viscosity [mPa·s]
298.15 K, x1 = 0.004	1.17	–
298.15 K, x1 = 0.008	2.08	–
298.15 K, x1 = 0.019	3.25	–
298.15 K, x2 = 0.5596	–	50
298.15 K, x2 = 0.785	1.15	–
298.15 K, x2 = 0.8016	–	13.45
298.15 K, x2 = 0.8521	–	8.87
298.15 K, x2 = 0.861	2.33	–
298.15 K, x2 = 0.892	2.95	–
298.15 K, x2 = 0.9004	–	5.45
298.15 K, x2 = 0.9254	–	4.05
298.15 K, x2 = 0.929	3.58	–
298.15 K, x2 = 0.9503	–	2.73
298.15 K, x2 = 0.968	3.96	–
299.15 K, x1 = 0.004	1.2	–
299.15 K, x1 = 0.019	3.33	–
299.15 K, x2 = 0.704	0.601	–
299.15 K, x2 = 0.785	1.18	–
299.15 K, x2 = 0.796	1.29	–
299.15 K, x2 = 0.861	2.39	–
299.15 K, x2 = 0.929	3.67	–
299.15 K, x2 = 0.968	4.04	–
300.15 K, x1 = 0.008	2.17	–
300.15 K, x1 = 0.019	3.4	–
300.15 K, x2 = 0.704	0.634	–
300.15 K, x2 = 0.785	1.23	–
300.15 K, x2 = 0.796	1.3	–
300.15 K, x2 = 0.861	2.5	–
300.15 K, x2 = 0.892	3.02	–
300.15 K, x2 = 0.929	3.75	–
300.15 K, x2 = 0.951	4.23	–
300.15 K, x2 = 0.968	4.13	–
301.15 K, x1 = 0.004	1.27	–
301.15 K, x1 = 0.008	2.23	–
301.15 K, x1 = 0.019	3.5	–
301.15 K, x2 = 0.704	0.661	–
301.15 K, x2 = 0.785	1.28	–
301.15 K, x2 = 0.796	1.36	–
301.15 K, x2 = 0.892	3.11	–
301.15 K, x2 = 0.929	3.87	–
301.15 K, x2 = 0.951	4.33	–
301.15 K, x2 = 0.968	4.05	–
302.15 K, x1 = 0.004	1.29	–
302.15 K, x1 = 0.008	2.26	–
302.15 K, x2 = 0.704	0.663	–
302.15 K, x2 = 0.796	1.41	–
302.15 K, x2 = 0.892	3.2	–
302.15 K, x2 = 0.929	3.97	–
302.15 K, x2 = 0.951	4.43	–
302.15 K, x2 = 0.968	4.28	–
303.15 K, x1 = 0.004	1.31	–
303.15 K, x1 = 0.008	2.31	–
303.15 K, x1 = 0.019	3.66	–
303.15 K, x2 = 0.785	1.39	–
303.15 K, x2 = 0.796	1.47	–
303.15 K, x2 = 0.892	3.3	–
303.15 K, x2 = 0.929	4.16	–
303.15 K, x2 = 0.951	4.54	–
303.15 K, x2 = 0.968	4.41	–
304.15 K, x1 = 0.004	1.34	–
304.15 K, x1 = 0.008	2.37	–
304.15 K, x1 = 0.019	3.73	–
304.15 K, x2 = 0.704	0.753	–
304.15 K, x2 = 0.785	1.44	–
304.15 K, x2 = 0.861	2.79	–
304.15 K, x2 = 0.892	3.4	–
304.15 K, x2 = 0.929	4.22	–
304.15 K, x2 = 0.951	4.61	–
304.15 K, x2 = 0.968	4.55	–
305.15 K, x1 = 0.008	2.4	–
305.15 K, x1 = 0.019	3.77	–
305.15 K, x2 = 0.785	1.46	–
305.15 K, x2 = 0.796	1.56	–
305.15 K, x2 = 0.892	3.51	–
305.15 K, x2 = 0.929	4.35	–
305.15 K, x2 = 0.951	4.74	–
305.15 K, x2 = 0.968	4.51	–
306.15 K, x1 = 0.008	2.45	–
306.15 K, x1 = 0.019	3.85	–
306.15 K, x2 = 0.704	0.815	–
306.15 K, x2 = 0.785	1.49	–
306.15 K, x2 = 0.796	1.62	–
306.15 K, x2 = 0.892	3.6	–
306.15 K, x2 = 0.929	4.49	–
306.15 K, x2 = 0.951	5.02	–
306.15 K, x2 = 0.968	4.73	–
307.15 K, x1 = 0.004	1.42	–
307.15 K, x1 = 0.019	4.02	–
307.15 K, x2 = 0.704	0.851	–
307.15 K, x2 = 0.796	1.64	–
307.15 K, x2 = 0.861	3.04	–
307.15 K, x2 = 0.892	3.74	–
307.15 K, x2 = 0.929	4.59	–
307.15 K, x2 = 0.951	4.98	–
307.15 K, x2 = 0.968	4.78	–
308.15 K, x1 = 0.004	1.44	–
308.15 K, x1 = 0.008	2.62	–
308.15 K, x2 = 0.704	0.882	–
308.15 K, x2 = 0.785	1.64	–
308.15 K, x2 = 0.796	1.69	–
308.15 K, x2 = 0.892	3.83	–
308.15 K, x2 = 0.929	4.72	–
308.15 K, x2 = 0.951	5.05	–
309.15 K, x1 = 0.004	1.47	–
309.15 K, x1 = 0.008	2.62	–
309.15 K, x1 = 0.019	4.14	–
309.15 K, x2 = 0.704	0.921	–
309.15 K, x2 = 0.861	3.17	–
309.15 K, x2 = 0.892	3.93	–
309.15 K, x2 = 0.929	4.79	–
309.15 K, x2 = 0.951	5.22	–
310.15 K, x1 = 0.004	1.5	–
310.15 K, x1 = 0.008	2.66	–
310.15 K, x2 = 0.704	0.956	–
310.15 K, x2 = 0.785	1.74	–
310.15 K, x2 = 0.796	1.8	–
310.15 K, x2 = 0.929	4.93	–
310.15 K, x2 = 0.951	5.35	–
311.15 K, x1 = 0.004	1.54	–
311.15 K, x1 = 0.008	2.73	–
311.15 K, x1 = 0.019	4.21	–
311.15 K, x2 = 0.704	0.987	–
311.15 K, x2 = 0.785	1.79	–
311.15 K, x2 = 0.796	1.86	–
311.15 K, x2 = 0.892	4.16	–
311.15 K, x2 = 0.929	5.04	–
311.15 K, x2 = 0.951	5.47	–
311.15 K, x2 = 0.968	5.2	–
312.15 K, x1 = 0.004	1.57	–
312.15 K, x1 = 0.008	2.75	–
312.15 K, x1 = 0.019	4.39	–
312.15 K, x2 = 0.704	1.06	–
312.15 K, x2 = 0.785	1.86	–
312.15 K, x2 = 0.861	3.44	–
312.15 K, x2 = 0.892	4.28	–
312.15 K, x2 = 0.929	5.15	–
312.15 K, x2 = 0.951	5.65	–
312.15 K, x2 = 0.968	5.28	–
313.15 K, x1 = 0.004	1.58	–
313.15 K, x1 = 0.008	2.8	–
313.15 K, x1 = 0.019	4.46	–
